# Tested on: TLR9 signaling
# Experiment: ODN 1668-induced cytokine secretion in BMDM supernatants (ELISA)
# Format: cell-based, mouse
# Conditions: 5 hour supernatants, ODN 1668 1 μM
# Experimental: Mouse TNFα and IL-12-p40 concentrations were measured in supernatants using ELISA kits from Biolegend™, Inc.
# BMDMs were incubated in the presence of a decoy peptide for 30 minutes prior to stimulation with ODN 1668 (1 μM). The statistical significance of changes in cytokine levels was determined by the one-way ANOVA test; *p<0.01.
sequence,measurement,setting,value
RSFWAQLGMALTRD (Synthetic peptide 9R11),secretion of IL-12-p40,peptide 20 μM,also effective
same,production/secretion of TNFα,peptide 40 μM,decreased the production of TNFα
same,secretion of IL-12-p40,peptide 40 μM,reduced secretion

# Reference: patent publication US12084521B2, “TLR9 inhibitors to suppress inflammatory response to pathogens” (University Of Maryland, Baltimore, priority 2018, dated 2024)
